Assays:
[1] = Antiproliferative activity against transgenic mouse SAL cells overexpressing human IGF1R assessed as [3H]thymidine incorporation after 72 hrs
[2] = AUC in mouse at 20 mg/kg after 4 hrs; format: ADME, organism-based; set-up: time < 4 hr, dose 20 mg/kg; conditions: plasma
Cytochrome P450 3A4 = Cytochrome P450 3A4 (Homo sapiens, UniProt P08684); experiment: Inhibition of human recombinant CYP3A4 in human liver microsomes using BFC as a substrate
[3] = target: T1, Nuclear receptor subfamily 1 group I member 2 (Homo sapiens, UniProt O75469); experiment: Induction of PXR transactivation
T1 sequence (O75469 whole entry): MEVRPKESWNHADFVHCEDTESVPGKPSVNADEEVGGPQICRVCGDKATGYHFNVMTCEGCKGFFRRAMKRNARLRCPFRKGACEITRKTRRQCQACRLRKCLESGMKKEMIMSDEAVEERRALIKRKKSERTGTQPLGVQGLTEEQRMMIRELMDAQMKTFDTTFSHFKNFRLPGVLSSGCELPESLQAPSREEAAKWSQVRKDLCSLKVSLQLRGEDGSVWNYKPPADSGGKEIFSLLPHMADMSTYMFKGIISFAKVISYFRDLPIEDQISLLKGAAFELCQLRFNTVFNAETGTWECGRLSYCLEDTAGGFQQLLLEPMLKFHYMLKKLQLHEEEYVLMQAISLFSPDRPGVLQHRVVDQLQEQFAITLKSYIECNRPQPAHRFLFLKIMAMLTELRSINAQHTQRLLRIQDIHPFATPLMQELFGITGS

[4] = Protein binding in mouse plasma at 10 uM by equilibrium dialysis; format: ADME, cell-free; conditions: read-out: PPB (converted)

Cytochrome P450 3A4, sequence (P08684 whole entry): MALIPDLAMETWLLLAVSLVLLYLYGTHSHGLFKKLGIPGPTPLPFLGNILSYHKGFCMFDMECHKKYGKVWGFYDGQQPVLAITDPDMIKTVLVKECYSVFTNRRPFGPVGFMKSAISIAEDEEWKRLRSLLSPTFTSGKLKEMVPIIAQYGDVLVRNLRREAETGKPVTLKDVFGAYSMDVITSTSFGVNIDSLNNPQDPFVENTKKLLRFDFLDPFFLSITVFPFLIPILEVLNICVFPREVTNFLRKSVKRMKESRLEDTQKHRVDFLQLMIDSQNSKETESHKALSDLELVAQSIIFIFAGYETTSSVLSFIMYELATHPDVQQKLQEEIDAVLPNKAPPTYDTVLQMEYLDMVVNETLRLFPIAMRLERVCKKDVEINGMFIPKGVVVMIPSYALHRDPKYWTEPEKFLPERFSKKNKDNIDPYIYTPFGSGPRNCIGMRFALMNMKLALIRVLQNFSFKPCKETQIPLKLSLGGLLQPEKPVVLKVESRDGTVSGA

AUC at 4 h [2] [nM·h]	IC50 (Cytochrome P450 3A4) [µM]	EC20 [3] [µM]	fraction unbound at 10 µM [4]	Structure (SMILES)	IC50 [1] [µM]
400	40	> 50		Cc1cc(C2CCN(C)CC2)cc2[nH]c(-c3c(NCCn4cc(Cl)cn4)cc[nH]c3=O)nc12	0.162
490	7.7	> 50		COCCN1CCC(c2cc(C)c3nc(-c4c(NC[C@@H](O)c5ccc(OC)c(Cl)c5)cc[nH]c4=O)[nH]c3c2)CC1	0.013
280	10	> 50		COc1ccc([C@H](O)CNc2cc[nH]c(=O)c2-c2nc3c(C)cc(C4CCN(CCCF)CC4)cc3[nH]2)cc1Cl	0.04
100	23	> 50		Cc1cc(C2CCN(CCO)CC2)cc2[nH]c(-c3c(NCCn4cc(Cl)cn4)cc[nH]c3=O)nc12	0.241
1800	19.5	> 50	0.038	COCCN1CCC(c2cc(C)c3nc(-c4c(NCCn5cc(Cl)cn5)cc[nH]c4=O)[nH]c3c2)CC1	0.046

Reference: ChEMBL document CHEMBL1140084, “Discovery and evaluation of 4-(2-(4-chloro-1H-pyrazol-1-yl)ethylamino)-3-(6-(1-(3-fluoropropyl)piperidin-4-yl)-4-methyl-1H-benzo[d]imidazol-2-yl)pyridin-2(1H)-one (BMS-695735), an orally efficacious inhibitor of insulin-like growth factor-1 receptor kinase with broad spectrum in vivo antitumor …” (J Med Chem, 2008)
